The text below walks through data of US7566550B2, “Screening method for developing drugs against pathogenic microbes having two-component system” (priority 2002, dated 2009).

Test [1] has as its target T1, Rv2027194 (Mycobacterium tuberculosis, UniProt P9WGK1). Kind of test: High-throughput (96-well filter retention) autophosphorylation of sensor kinase Rv2027194 with [γ32P]ATP. Type of test: biochemical, M. tuberculosis. Particulars: high-throughput format, concentration course 2.5 mM to 1 μM; read-out: concentration required to cause 50% inhibition (IC50) of the autophosphorylation of Rv2027194.

Test [2] addresses T1, Rv2027194. The experiment in a line: Coomassie-stained SDS-PAGE check for aggregation of sensor kinase Rv2027194. On the set-up: species or system M. tuberculosis. The conditions noted are these: coomassie-stained SDS-PAGE of autophosphorylation reaction.
Test [3] has as its target T2, DevS201 (Mycobacterium tuberculosis, UniProt P9WGK3). The experiment in a line: High-throughput (96-well filter retention) autophosphorylation of sensor kinase DevS201 with [γ32P]ATP. Particulars: for IC50: high-throughput format, concentration course 2.5 mM to 1 μM, read-out: concentration required to cause 50% inhibition (IC50) of the autophosphorylation of DevS201. Type of test: biochemical, M. tuberculosis.

The target in test [4] is T2, DevS201. Kind of test: Coomassie-stained SDS-PAGE check for aggregation of sensor kinase DevS201. On the set-up: species or system M. tuberculosis. The conditions noted are these: coomassie-stained SDS-PAGE of autophosphorylation reaction.
The target in test [5] is T2, DevS201. Kind of test: SDS-PAGE/autoradiography assay of DevS201 autophosphorylation in presence of candidate compounds. The format is biochemical, M. tuberculosis. Particulars: 1 mM compound, 12 μM DevS201, SDS-PAGE format. On the procedure:
FIG. 16. Inhibition of autophosphorylation of sensor kinase DevS201 by various candidate compounds. Autoradiogram of SDS-PAGE of autophosphorylation reaction products. Lane 1, levamisole HCl; lane 2, folic acid; lane 3, gly-gly-glycine; lane 4, EGTA; lane 5, bromo-phenol blue; lane 6, HABA; lane 7, ethidium bromide; lane 8, anti-DevS antibody (1 μl); lane 9, no compound. Briefly, all the mentioned compounds (1 mM final concentration) were added to 12 μM of DevS201 in reaction buffer without ATP and incubated at RT for 30 minutes after which the reaction was initiated by addition of [γ^32P]ATP and cold ATP. The reaction contents were then incubated at 25° C. for 60 minutes and were subsequently analyzed on gel as mentioned earlier.
Utilizing this knowledge a few compounds were tested for their inhibitory activity on the autophosphorylation potential of DevS sensor kinase. These included levamisole, folic acid, glycyl glycyl glycine, ethidium bromide, bromo phenol blue, 2-4-hydroxyphenylazo benzoic acid (HABA), 2-mercapto benzimidazole etc. […]
To elaborate, 12 μM of DevS201 was incubated with the aforementioned compounds in the phosphorylation reaction buffer (50 mM Tris.HCl, pH 8.0, 50 mM KCl and 25 mM MgCl2) for 30 minutes at room temperature. […] Subsequently, the reactions were terminated and analyzed on SDS-PAGE as mentioned previously.

The test system of a further test is tubercle bacilli. The conditions noted are these: replicating, static and multidrug-resistant bacilli; cited from earlier work.

For orientation: inhibition means the share of the control response that was lost under treatment.

Structures are written as SMILES. Where “and” joins values, the source holds several entries; their conditions need not be identical. Identical values can stand only once. Entries after “also recorded” stand apart in the source; their conditions may differ. Bounds are passed on as bounds.

T1 sequence (P9WGK1 380-573 limits assumed): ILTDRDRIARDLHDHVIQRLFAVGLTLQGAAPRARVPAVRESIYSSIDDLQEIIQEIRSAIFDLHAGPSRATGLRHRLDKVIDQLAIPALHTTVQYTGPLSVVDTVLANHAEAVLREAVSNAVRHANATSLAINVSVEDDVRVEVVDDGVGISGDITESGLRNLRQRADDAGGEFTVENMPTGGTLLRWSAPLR
T2 sequence (P9WGK3 378-578 limits assumed): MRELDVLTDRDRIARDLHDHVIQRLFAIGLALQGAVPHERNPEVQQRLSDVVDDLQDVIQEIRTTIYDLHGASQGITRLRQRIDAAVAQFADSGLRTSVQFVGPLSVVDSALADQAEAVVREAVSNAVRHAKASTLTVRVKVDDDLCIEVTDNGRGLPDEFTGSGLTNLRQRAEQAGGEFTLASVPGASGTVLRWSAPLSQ

Consider `Sc1nc2ccccc2[nH]1` [2-MBI, 2-mercapto benzimidazole], for which the IC50 on Rv2027194 [1] was 400 to 600 µM and 300 to 800 µM; at DevS201 [3] it was 400 to 600 µM and 300 to 800 µM. Further, on Rv2027194 [2], the “aggregation of sensor kinase Rv2027194 in presence of compound” value (from here on “aggregation of sensor kinase Rv2027194”) is recorded as “absence of aggregate”. Moreover, at DevS201 [4], the “aggregation of sensor kinase DevS201 in presence of compound” value (shortened to “aggregation of sensor kinase DevS201”) is given as “absence of aggregate”.
As for `O=S1(=O)OC(c2cc(Br)c(O)c(Br)c2)(c2cc(Br)c(O)c(Br)c2)c2ccccc21` [BPB, 3′,3″,5′,5″-Tetrabromophenol tetrabromosulfonapthalene], the IC50 at Rv2027194 [1] and on DevS201 [3] was 1500 to 1700 µM throughout. Moreover, the “aggregation of sensor kinase Rv2027194” value on Rv2027194 [2] is “no aggregation; also recorded: did not cause aggregation”. Also, the “inhibition of the autophosphorylation of DevS201 (autoradiogram)” value at DevS201 [5] is “visible inhibition”. For the same molecule, the “aggregation of sensor kinase DevS201” value on DevS201 [4] is recorded as “no aggregation; also recorded: did not cause aggregation”.
With `CC[n+]1c(-c2ccccc2)c2cc(N)ccc2c2ccc(N)cc21.[Br-]` [EtBr, Phenanthridinium, 3,8-diamino-5-ethyl-6-phenyl-, bromide], the IC50 on Rv2027194 [1] is 600 to 700 µM and 500 to 1000 µM; at DevS201 [3], over 2500 µM. Also, the “aggregation of sensor kinase Rv2027194” value at Rv2027194 [2] is “no aggregation; also recorded: did not cause aggregation”. For the same molecule, the inhibition at 2500 µM at DevS201 [3] (in the presence of 2.5 mM, read-out: inhibition of DevS) turned out to be 35%. The “inhibition of the autophosphorylation of DevS201 (autoradiogram)” value on DevS201 [5] was “visible inhibition”. The “aggregation of sensor kinase DevS201” value on DevS201 [4] is “no aggregation; also recorded: did not cause aggregation”.
Turning to `O=[N+]([O-])c1cn2c(n1)OC[C@@H](OCc1ccc(OC(F)(F)F)cc1)C2` [PA-824], the “activity against tubercle bacilli” value in the test on tubercle bacilli is “activity against both replicating and static tubercle bacilli as well as multidrug-resistant bacilli”.
